This is an account of results in ChEMBL document CHEMBL5143714, “Discovery of BMS-986339, a Pharmacologically Differentiated Farnesoid X Receptor Agonist for the Treatment of Nonalcoholic Steatohepatitis” (J Med Chem, 2022).

A word on the IC50: it is the point on the concentration scale where inhibition reaches its midpoint. What is called EC50 is the concentration needed to bring the measured effect to its halfway point. A word on the Emax: it is the size of the effect at its maximum, as opposed to the concentration needed.

A short description of data set [1]: Metabolic stability in human liver microsome assessed as parent compound remaining at […] measured after 10 mins. The note with it: liver microsomes, read-out: Stability. In kind it is ADME. A general note: Microsomes from liver hold many membrane-bound enzymes, among them those of drug oxidation.
Data set [2] can be described thus: Metabolic stability in mouse liver microsome assessed as parent compound remaining at […] measured after 10 mins. It is filed as ADME. The note with it: liver microsomes, read-out: Stability.
Data set [3] concerns the target Cytochrome P450 2C19 (Homo sapiens, UniProt P33261). Put plainly: Inhibition of recombinant CYP2C19 (unknown origin) using fluorogenic substrate preincubated for 15 min followed by NADPH addition measured after 2 hrs by fluorescence method. It is filed as ADME.
Data set [4] is described as follows: Metabolic stability in rat liver microsome assessed as parent compound remaining at […] measured after 10 mins. The note with it: liver microsomes, read-out: Stability. In kind it is ADME.
In data set [5] the target is T1, Bile acid receptor (Homo sapiens, UniProt Q96RI1).
T1 sequence (Q96RI1 whole entry): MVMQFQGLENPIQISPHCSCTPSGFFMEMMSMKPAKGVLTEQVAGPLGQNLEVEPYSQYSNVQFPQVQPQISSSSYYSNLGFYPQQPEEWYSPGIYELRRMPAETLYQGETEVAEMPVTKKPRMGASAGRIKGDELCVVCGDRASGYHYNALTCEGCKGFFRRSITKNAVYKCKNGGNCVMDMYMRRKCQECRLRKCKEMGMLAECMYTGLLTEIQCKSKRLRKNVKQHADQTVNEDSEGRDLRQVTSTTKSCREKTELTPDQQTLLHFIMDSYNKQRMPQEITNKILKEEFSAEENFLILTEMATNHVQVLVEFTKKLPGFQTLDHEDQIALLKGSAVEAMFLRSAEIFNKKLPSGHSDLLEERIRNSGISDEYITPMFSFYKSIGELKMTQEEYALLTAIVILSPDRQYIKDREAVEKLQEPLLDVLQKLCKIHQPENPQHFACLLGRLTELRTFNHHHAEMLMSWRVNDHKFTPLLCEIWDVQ
Kind of data set: Agonist activity at Gal4-fused human FXR in HEK293 cells incubated for 15 min by luciferase reporter assay. It is filed as cell-based. For orientation: Reporter assays use an easily measured gene product as a stand-in for the process of interest.

For data set [6], the target named is Cytochrome P450 2C9 (Homo sapiens, UniProt P11712). Put plainly: Inhibition of recombinant CYP2C9 (unknown origin) using fluorogenic substrate preincubated for 15 min followed by NADPH addition measured after 2 hrs by fluorescence method. In kind it is ADME.
Cytochrome P450 2C9, sequence (P11712 whole entry): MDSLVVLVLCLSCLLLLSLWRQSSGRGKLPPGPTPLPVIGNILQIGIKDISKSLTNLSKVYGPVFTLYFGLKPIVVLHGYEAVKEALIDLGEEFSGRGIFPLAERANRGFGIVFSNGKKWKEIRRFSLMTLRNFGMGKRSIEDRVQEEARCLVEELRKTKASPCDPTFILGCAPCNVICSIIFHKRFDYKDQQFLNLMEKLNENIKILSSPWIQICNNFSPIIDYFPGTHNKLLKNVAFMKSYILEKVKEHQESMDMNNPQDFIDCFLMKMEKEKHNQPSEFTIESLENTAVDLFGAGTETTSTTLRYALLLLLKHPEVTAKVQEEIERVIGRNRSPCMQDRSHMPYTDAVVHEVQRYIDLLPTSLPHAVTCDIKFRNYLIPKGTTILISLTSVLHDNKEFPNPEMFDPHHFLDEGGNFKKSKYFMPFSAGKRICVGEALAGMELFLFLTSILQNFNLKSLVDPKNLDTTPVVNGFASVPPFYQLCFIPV
The target of data set [7] is T2, Nuclear receptor subfamily 1 group I member 2 (Homo sapiens, UniProt O75469).
T2 sequence (O75469 whole entry): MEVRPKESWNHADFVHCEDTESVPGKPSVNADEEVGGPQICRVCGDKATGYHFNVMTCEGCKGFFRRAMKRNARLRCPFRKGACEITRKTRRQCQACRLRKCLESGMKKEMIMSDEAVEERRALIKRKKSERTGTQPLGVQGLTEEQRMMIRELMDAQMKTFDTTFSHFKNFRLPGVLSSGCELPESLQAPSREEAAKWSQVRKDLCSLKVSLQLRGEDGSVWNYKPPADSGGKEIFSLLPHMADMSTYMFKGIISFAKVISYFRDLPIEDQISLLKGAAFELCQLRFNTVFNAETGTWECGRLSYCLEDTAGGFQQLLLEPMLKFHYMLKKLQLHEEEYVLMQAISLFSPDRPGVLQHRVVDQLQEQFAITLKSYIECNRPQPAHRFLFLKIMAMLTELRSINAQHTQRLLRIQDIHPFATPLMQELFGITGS
Kind of data set: Transactivation of PXR (unknown origin). It is filed as ADME.

The target in data set [8] is T2, Nuclear receptor subfamily 1 group I member 2. Put plainly: Transactivation of PXR (unknown origin) relative to refampicin. In kind it is ADME.

Cytochrome P450 2C19, sequence (P33261 whole entry): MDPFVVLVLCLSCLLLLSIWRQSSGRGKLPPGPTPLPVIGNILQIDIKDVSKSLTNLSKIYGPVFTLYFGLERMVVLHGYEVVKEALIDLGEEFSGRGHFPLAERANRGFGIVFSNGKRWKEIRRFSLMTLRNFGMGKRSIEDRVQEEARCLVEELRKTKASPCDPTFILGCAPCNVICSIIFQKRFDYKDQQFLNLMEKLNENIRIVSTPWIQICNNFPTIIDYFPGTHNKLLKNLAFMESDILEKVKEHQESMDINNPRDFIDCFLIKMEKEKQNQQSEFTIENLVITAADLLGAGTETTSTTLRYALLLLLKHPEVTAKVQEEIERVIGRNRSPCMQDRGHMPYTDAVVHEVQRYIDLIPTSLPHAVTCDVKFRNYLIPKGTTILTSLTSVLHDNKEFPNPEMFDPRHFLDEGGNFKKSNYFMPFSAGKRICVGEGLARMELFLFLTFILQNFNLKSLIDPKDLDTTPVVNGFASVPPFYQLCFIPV

As for `CC(C)(C)c1nc(C23CCC(CN(C(=O)C45CC(F)(C4)C5)c4cccc(-c5nnc(C6CC6)o5)c4)(CC2)CC3)no1`, the remaining at 10 min in data set [1] stood at 76%; in data set [2], 52%; in data set [4] it was 60%. The IC50 in data set [3] was found to be 1000 nM. Moreover, in data set [5], the EC50 worked out at 45 nM.

Compound `COC(=O)/C=C/c1cccc(N(CC23CCC(c4ccc(N5CCOCC5)cc4)(CC2)CC3)C(=O)C2CCCCC2)c1` had an EC50 in data set [5] of 118 nM.

As to `CCOC(=O)c1nc(-c2cccc(N(CC34CCC(c5nc(C6CC6)no5)(CC3)CC4)C(=O)C3CCCCC3)c2)cs1`, in data set [5], the EC50 is 919 nM.

On to `CCOc1ncc(-c2cccc(N(CC34CCC(c5noc(C(C)(C)C)n5)(CC3)CC4)C(=O)[C@H]3C[C@](O)(C(F)(F)F)C3)c2)cn1`, for which the remaining at 10 min in data set [1] turned out to be 69%; in data set [2], 86%; in data set [4], 73%. Also, the IC50 was 1000 nM in data set [6] and 10000 nM in data set [3]. Also, the EC50 in data set [7] was 50000 nM; in data set [5], 152 nM. This compound came in with an Emax in data set [8] of 10%.

`COc1cc(-c2cccc(N(CC34CCC(c5nc(C6CC6)no5)(CC3)CC4)C(=O)C3CCCCC3)c2)ccn1` displayed an EC50 in data set [5] of 95 nM.

As for `CC(C)(O)c1ccc(-c2cccc(N(CC34CCC(c5noc(C(C)(C)F)n5)(CC3)CC4)C(=O)[C@H]3C[C@@](C)(O)C3)c2)cc1`, the remaining at 10 min in data set [1] was found to be 100%; in data set [2], 99%; in data set [4], 100%. Further, the figures for the IC50 in data set [6] and in data set [3] were 5000 nM and 9000 nM, respectively. The figures for the EC50 in data set [7] and in data set [5] were 50000 nM and 25 nM, respectively. Further, the Emax in data set [8] is 13%.

Turning to `CCOc1ncc(-c2cccc(N(CC34CCC(c5noc(C(C)(C)C)n5)(CC3)CC4)C(=O)C34CC(F)(C3)C4)c2)cn1`, the remaining at 10 min in data set [1] came out at 100%; in data set [2], 77%; in data set [4] it was 80%. Further, the IC50 in data set [6] was found to be 1000 nM; in data set [3], 6000 nM. In addition, the results for the EC50 in data set [7] and in data set [5] were 50000 nM and 41 nM, respectively. The same compound displayed an Emax in data set [8] of 9%.

`COC(=O)/C=C/c1cccc(N(CC23CCC(c4ccc(N5CCCC5)cc4)(CC2)CC3)C(=O)C2CCCCC2)c1` yielded an EC50 in data set [5] of 299 nM.

With `CC(C)(C)c1nc(C23CCC(CN(C(=O)C45CC(F)(C4)C5)c4cccc(-c5nc(C6CC6)no5)c4)(CC2)CC3)no1`, the remaining at 10 min in data set [1] turned out to be 97%; in data set [2], 92%; in data set [4], 81%. For the same compound, the IC50 in data set [6] was 3000 nM; in data set [3], 9000 nM. Besides, the EC50 was determined as 50000 nM in data set [7] and 29 nM in data set [5]. The Emax in data set [8] is 19%.

On to `COc1cccc(-c2cccc(N(CC34CCC(c5nc(C6CC6)no5)(CC3)CC4)C(=O)C3CCCCC3)c2)c1`, for which the EC50 in data set [5] amounted to 92 nM.

For `O=C(C1CCC(F)(F)CC1)N(CC12CCC(c3nc(C4CC4)no3)(CC1)CC2)c1cccc(-c2nc(C3CC3)no2)c1`, the remaining at 10 min in data set [1] came to 100%; in data set [2], 82%; in data set [4], 23%. The IC50 in data set [6] is 20000 nM; in data set [3] it was 300 nM. For the same compound, the EC50 amounted to 8000 nM in data set [7] and 149 nM in data set [5]. Also, the Emax in data set [8] stood at 35%.

Regarding `O=C(C1CCOCC1)N(CC12CCC(c3nc(C4CC4)no3)(CC1)CC2)c1cccc(-c2nc(C3CC3)no2)c1`, the remaining at 10 min in data set [1] came out at 86%; in data set [2], 8%; in data set [4] it was 0%. Besides, the IC50 in data set [6] is 1000 nM; in data set [3], 20000 nM. For the same compound, the EC50 in data set [5] came to 114 nM.

On to `O=C(C1CCCCC1)N(CC12CCC(c3nc(C4CC4)no3)(CC1)CC2)c1cccc(-c2nc(C3CC3)no2)c1`, for which the remaining at 10 min in data set [1] came out at 38%; in data set [2], 34%; in data set [4], 4%. The IC50 in data set [6] and in data set [3] was 20000 nM each time. The EC50 in data set [7] was 6000 nM; in data set [5], 44 nM. The compound further had an Emax in data set [8] of 21%.

For `CCOc1ncc(-c2cccc(N(CC34CCC(c5noc(C(C)(C)C)n5)(CC3)CC4)C(=O)[C@H]3C[C@@](C)(O)C3)c2)cn1`, the remaining at 10 min is 64% in data set [1], 84% in data set [2] and 44% in data set [4]. Also, the IC50 in data set [6] worked out at 1000 nM; in data set [3] it was 9000 nM. In data set [7], this compound came in with an EC50 of 1500 nM. In data set [8], this compound gave a maximum response (Emax) of 37%.

As to `CC(C)(C)c1noc(C23CCC(CN(C(=O)C45CC(F)(C4)C5)c4cccc(-c5nc(C6CC6)no5)c4)(CC2)CC3)n1`, the remaining at 10 min in data set [1] was 100%; in data set [2], 100%; in data set [4], 86%. The IC50 in data set [6] and in data set [3] was 20000 nM throughout. Moreover, the 50% effective concentration (EC50) worked out at 50000 nM in data set [7] and 70 nM in data set [5]. The Emax in data set [8] turned out to be 11%.

As to `CN1CCC(C(=O)N(CC23CCC(c4nc(C5CC5)no4)(CC2)CC3)c2cccc(-c3nc(C4CC4)no3)c2)CC1`, the figures for the remaining at 10 min in data set [1], in data set [2] and in data set [4] were 98%, 71% and 37%, respectively. The IC50 worked out at 20000 nM in data set [6] and 13000 nM in data set [3]. The EC50 came out at 50000 nM in data set [7] and 1640 nM in data set [5]. Moreover, the Emax in data set [8] stood at 11%.

As for `CCOc1ncc(-c2cccc(N(CC34CCC(c5noc(C(F)F)n5)(CC3)CC4)C(=O)C34CC(F)(C3)C4)c2)cn1`, the remaining at 10 min is 88% in data set [1], 84% in data set [2] and 64% in data set [4]. Moreover, the IC50 in data set [6] came to 2000 nM; in data set [3], 7000 nM. The half-maximal effective concentration (EC50) worked out at 2000 nM in data set [7] and 170 nM in data set [5]. In data set [8], this compound yielded an Emax of 28%.

For `O=C(N(CC12CCC(c3nc(C4CC4)no3)(CC1)CC2)c1cccc(-c2nc(C3CC3)no2)c1)C12CC(F)(C1)C2`, the remaining at 10 min turned out to be 100% in data set [1], 100% in data set [2] and 99% in data set [4]. For the same compound, the IC50 in data set [6] and in data set [3] was 2000 nM each time. Further, in data set [7], the EC50 turned out to be 1000 nM. In data set [8], this compound gave an Emax of 25%.

`CCOc1cc(-c2cccc(N(CC34CCC(c5nc(C6CC6)no5)(CC3)CC4)C(=O)C3CCCCC3)c2)no1` showed an EC50 in data set [5] of 59 nM.

In data set [5], `COC(=O)/C=C/c1cccc(N(CC23CCC(c4ccc(C5CC5)cc4)(CC2)CC3)C(=O)C2CCCCC2)c1` yielded an EC50 of 111 nM.

On to `CCOc1ccc(-c2cccc(N(CC34CCC(c5noc(C(C)(C)C)n5)(CC3)CC4)C(=O)C34CC(F)(C3)C4)c2)cn1`, for which the remaining at 10 min in data set [1] came out at 94%; in data set [2] it was 58%; in data set [4] it was 79%. Also, the IC50 in data set [6] amounted to 2000 nM; in data set [3], 8000 nM. For the same compound, a half-maximal response in data set [7] (EC50) required 50000 nM. Besides, the Emax in data set [8] was found to be 9%.

For `O=C(C1CC(F)(F)C1)N(CC12CCC(c3nc(C4CC4)no3)(CC1)CC2)c1cccc(-c2nc(C3CC3)no2)c1`, the remaining at 10 min in data set [1] worked out at 98%; in data set [2], 100%; in data set [4], 72%. Moreover, the IC50 in data set [6] was 1000 nM; in data set [3] it was 17000 nM. Besides, the EC50 in data set [7] amounted to 1000 nM. In data set [8], this compound registered an Emax of 62%.
